# Measurements as given in patent US20230000896A1, “ALDH3A2 INHIBITION AND FERROPTOSIS INDUCTION FOR CANCER THERAPY” (President and Fellows of Harvard College, priority 2019, published 2023).
# Residues, ends and D or L forms follow the SMILES beside them. *: point of attachment. Cbz = O=C(OCc1ccccc1)*; CH2F = FC*
# Assays:
# [1] = system: THP-1 cells; test: growth kinetics of ALDH3A2-depleted THP-1 cells treated with NAC; assay type: cell-based, human; conditions: 10 mM NAC, FIG. 12D
# Method: In cells cultured in [1,2-^13C2]glucose, the oxPPP generates singly ^13C labeled (M1) intermediates, glycolysis generates doubly 13C labeled (M2) intermediates, and the M1/M2 ratio reflects the oxPPP flux relative to glycolysis (FIG. 12E). […] Cells lacking ALDH3A2 thus fail to increase antioxidant defense mechanisms to mitigate the increased oxidative stress and prevent lipid peroxidation.
# (§1) RSL3 (at 5 uM), 4-HNE (5 uM) and ZVAD (at 10 uM) was added to Lin-Kit- or Lin-Kit+ leukemic cells in RPMI containing 10 ng/ul of murine IL3, IL6 and SCF. Ferrostatin (10 uM) was added to bulk leukemic cells in RPMI containing 10 ng/ul of murine IL3, TPO and FLT3L. Number of cells were measured by Celltiter GloR 2.0 assay at days 0, 1 and 3. 10 mM of NAC was added to RPMI with 10 percent FBS and 1 percent P/S for relevant rescue experiments. Drugs were purchased from Sigma.
# [2] = system: Aldh3a2-control and mutant leukemic cells; test: fatty acid rescue experiments (viability by flow cytometry); assay type: cell-based, mouse; conditions: FIG. 12H
# Method: By detoxifying fatty aldehydes, Aldh3a2 generates fatty acids that can be used for biosynthetic purposes (FIG. 12A). […] To further investigate the consequences of this depletion of 18-carbon fatty acids in Aldh3a2 knockout cells lipidomics analysis was performed on leukemic cells derived from conditional knockout mice (FIGS. 13A-13E). Several, but not all, phospholipid species containing 18-carbon fatty acid tails were decreased in mutant cells across lipid classes, including phosphatidylcholines, phosphatidylethanolamines, cardiolipins and phosphatidic acids (FIGS. 13A-13D).
# Cell viability was analyzed using Annexin V-APC (BioLegend) and 7-AAD (ThermoFisher Scientific) with Annexin V^−7-AAD^− cells considered as viable cells. Analysis was performed on A BD LSR II flow cytometer.
# Bulk GFP+ cells sorted from wildtype or mutant mice were plated in a 24 well plate at 50,000 cells per well. Oleic acid (Sigma), complexed to fatty acid-free bovine serum albumin, was added at concentrations of 62.5, 125 or 250 μM. Ethanol/albumin was used as control. 72 hours later cell viability was analyzed by flow cytometry.
# [3] = system: leukemic stem and progenitor cells (LSPCs); test: growth kinetics of Aldh3a2-control and mutant LSPCs treated with 4HNE; assay type: cell-based, mouse; conditions: 4-HNE 5 uM, FIG. 5E
# From the text: Aldehyde dehydrogenases metabolize aldehydes to mitigate oxidative stress and prevent lipid peroxidation in the cell. […] Next, oxidative damage in AML cells lacking Aldh3a2 was examined. […] To further assess deficits in detoxification capacity, the effects of 4-hydroxynonenal (4-HNE) was studied next, a commonly investigated fatty aldehyde and a byproduct of arachidonic acid catabolism, on cellular ROS, lipid peroxidation and proliferation in Aldh3a2-deficient leukemia stem and progenitor cells. […] Lastly, normal granulocyte monocyte precursors (N-GMPs) were investigated. […] RSL3 (at 5 uM), 4-HNE (5 uM) and ZVAD (at 10 uM) was added to Lin-Kit- or Lin-Kit+ leukemic cells in RPMI containing 10 ng/ul of murine IL3, IL6 and SCF. Ferrostatin (10 uM) was added to bulk leukemic cells in RPMI containing 10 ng/ul of murine IL3, TPO and FLT3L. Number of cells were measured by Celltiter GloR 2.0 assay at days 0, 1 and 3. 10 mM of NAC was added to RPMI with 10 percent FBS and 1 percent P/S for relevant rescue experiments. Drugs were purchased from Sigma.
# [4] = system: leukemic stem and progenitor cells (LSPCs); test: cellular ROS by flow cytometry in Aldh3a2-control and mutant LSPCs; assay type: cell-based, mouse; conditions: FIG. 5C
# From the text: (§2) Aldehyde dehydrogenases metabolize aldehydes to mitigate oxidative stress and prevent lipid peroxidation in the cell. […] Next, oxidative damage in AML cells lacking Aldh3a2 was examined. […] To further assess deficits in detoxification capacity, the effects of 4-hydroxynonenal (4-HNE) was studied next, a commonly investigated fatty aldehyde and a byproduct of arachidonic acid catabolism, on cellular ROS, lipid peroxidation and proliferation in Aldh3a2-deficient leukemia stem and progenitor cells. […] Lastly, normal granulocyte monocyte precursors (N-GMPs) were investigated. […] Spleens from Aldh3a2-Ctrl and Aldh3a2-mut mice were utilized to obtain single cell suspensions and were incubated with C11 Bodipy lipid peroxidation sensor (ThermoFisher Cat #C10445) or CellRox reagent (ThermoFisher Cat #C10491) for 30 minutes at […]. Cells were stained with biotinylated antibodies against lineage markers, SA-Pacific Orange conjugate (ThermoFisher) and APC Rat Anti-Mouse CD117 (BD Biosciences) and read on the LSRII flow cytometer. Lipid peroxidation and cellular ROS was assessed in Lineage-, c-Kit^+ and Lineage^−, c-Kit^hi populations. RSL3 (at 5 uM), 4-HNE (5 uM) and ZVAD (at 10 uM) was added to Lin-Kit- or Lin-Kit+ leukemic cells in RPMI containing 10 ng/ul of murine IL3, IL6 and SCF. […] Number of cells were measured by Celltiter GloR 2.0 assay at days 0, 1 and 3. […]
# [5] = system: leukemic stem and progenitor cells (LSPCs); test: lipid peroxidation by flow cytometry in Aldh3a2-control and mutant LSPCs; assay type: cell-based, mouse; conditions: FIG. 5D
# From the text: as §2
# [6] = system: Aldh3a2-control and mutant LSPCs; test: frequency of live Aldh3a2-control and mutant LSPCs after drug treatment; assay type: cell-based, mouse; conditions: three days
# From the text: The specific mechanism for the reduced number of leukemic cells upon Aldh3a2 deletion was next investigated.
# Lipid peroxidation has been linked to the induction of ferroptosis, a non-apoptotic, iron-dependent form of cell death. An increase in lysophospholipids, especially those lacking PUFA tails as was observed (FIG. 13E), is a hallmark of ferroptosis. In addition, the ability to rescue cell death by providing exogenous MUFAs, as was found (FIG. 12H), is another feature of ferroptotic cell death. To further confirm these findings cells were treated with ferrostatin, an inhibitor of iron-dependent oxidative damage.
# To further assess the relationship to ferroptosis, a key enzyme protecting cells from ferroptotic cell death, glutathione peroxidase 4 (Gpx4) was genetically and pharmacologically targeted. […] Recent findings have shown that activation of MUFAs by Acs13 can also promote resistance to ferroptosis. Acs13 expression was not different between Aldh3a2 control and mutant leukemic cells (FIG. 13F).
# as §1
# [7] = system: L-GMPs; test: methylcellulose assay of shRNA-infected L-GMPs; assay type: cell-based, mouse; conditions: compared to control shRNA, FIG. 2C
# Method: (§3) However, its functional role in normal and malignant hematopoiesis is unclear. […] Aldh3a2 knockdown in L-GMPs decreased the number of cells in a methylcellulose assay (FIG. 2C and FIG. 9A) that quantifies growth on a per cell basis.
# (§4) Ten thousand N-GMPs or L-GMPs infected with lentiviruses expressing relevant shRNAs were added to 3 cc of methylcellulose (StemCell Technologies) plated per well of a 6 well plate. Number of cells were counted on day 7.
# [8] = system: Aldh3a2; test: Q-PCR validation of Aldh3a2 knockdown in L-GMPs; assay type: cell-based, mouse; conditions: FIG. 2B
# Method: as §3
# RNA was extracted from cells using the RNeasy Micro Kit (Qiagen) and RT-PCR was performed using the SuperScript™ IV One-Step RT-PCR System according to the manufacturer's instructions. Taqman probes were used to perform Q-PCR for murine and human Aldh3a2.
# [9] = system: MLL-AF9 leukemia (L-GMPs); test: survival of sublethally irradiated C57BL/6J mice transplanted with shRNA-expressing L-GMPs; assay type: in vivo, mouse; conditions: ten thousand L-GMPs transplanted, vs control shRNA, FIG. 2D
# From the text: To evaluate Aldh3a2 knockdown in vivo, ten thousand L-GMPs expressing Aldh3a2-sh-1, Aldh3a2-sh-2 or control shRNA were transplanted into sublethally irradiated C57BL/6J recipient mice and followed over time.
# [10] = system: N-GMPs; test: methylcellulose assay of shRNA-infected N-GMPs; assay type: cell-based, mouse; conditions: compared to control shRNA, FIG. 3A
# From the text: Then a constitutive knockout mouse model (KO) was utilized where Aldh3a2 enzyme activity was decreased to less than 50 percent of wild-type (WT) control mice (FIG. 3B). (This model consists of a deletion of exon 4 of the Aldh3a2 gene which completely destroys Aldh3a2 enzyme activity but assays of cell homogenates measure total fatty aldehyde oxidizing activity including aldehyde dehydrogenases other than Aldh3a2).
# as §4
compound,measurement,setting,value
"CC(=O)N[C@@H](CS)C(=O)O [NAC, N-Acetyl-L-Cysteine]",rescue of ALDH3A2 depleted THP-1 cells,[1],partial rescue in the population of cells with moderate (sh-A) but not severe (sh-B) ALDH3A2 depletion
CCCCCCCC/C=C\CCCCCCCC(=O)O [oleic acid],rescue of the effects of Aldh3a2 depletion,"[2]; exogenous oleic acid (18:1), conditional mutant mice",rescued the effects of Aldh3a2 depletion
same,concentration of maximum rescue of cells from death,"[2]; three days culture, 62.5, 125 or 250 μM tested",125 µM
"CCCCCC(O)/C=C/C=O (stereo not shown) [4-HNE, 4-hydroxynonenal]","sensitivity to 4HNE, mutant versus control",[3],significantly greater in mutant than in control cells
same,cell growth,[3]; control and mutant cells,reduced cell growth
same,cellular ROS,[4]; 4-HNE exposure for 24 hours,increased cellular ROS in mutant but not control cells
same,lipid peroxidation,[5]; 4-HNE exposure,increased levels of lipid peroxidation in mutant but not in control cells
CCOC(=O)c1ccc(NC2CCCCC2)c(N)c1 [Ferrostatin],cell death in Aldh3a2 mutant leukemia cells,"[6]; Ferrostatin 10 uM, FIG. 6H and 14B",completely prevented the cell death
"Aldh3a2-sh-2: shRNA against mouse Aldh3a2, CCTCTGGCTCTTTATGTATTT (SEQ ID NO: 2)",number of L-GMPs in methylcellulose,[7],significantly decreases the number of L-GMPs in methylcellulose
same,Aldh3a2 expression in L-GMPs,[8],decreased Aldh3a2 expression in L-GMPs
same,survival of recipient mice,[9],survive significantly longer than control animals
Vitamin E,total ROS,[4]; 4HNE plus vitamin E treatment,decreased total ROS in control cells but was unable to do so in mutant cells
same,lipid peroxidation,[5]; 4HNE plus vitamin E treatment,significantly decreased lipid peroxidation in both populations
COC(=O)c1ccc([C@@H]2c3[nH]c4ccccc4c3C[C@@H](C(=O)OC)N2C(=O)CCl)cc1 [RSL3],sensitivity of Aldh3a2 deficient Lin-cKit+ AML cells,"[6]; RSL3 5 uM, FIG. 6I and 14C",increased sensitivity
"Aldh3a2-sh-1: shRNA against mouse Aldh3a2, GCAGGAAATGCTGTGATTATA (SEQ ID NO: 1)",number of L-GMPs in methylcellulose,[7],significantly decreases the number of L-GMPs in methylcellulose
same,number of N-GMPs in methylcellulose,[10],no difference in the number of N-GMPs
same,Aldh3a2 expression in L-GMPs,[8],decreased Aldh3a2 expression in L-GMPs
same,survival of recipient mice,[9],survive significantly longer than control animals
CC(NC(=O)C(NC(=O)OCc1ccccc1)C(C)C)C(=O)NC(CC(=O)O)C(=O)CF (stereo not drawn) [Z-VAD] (Cbz-Val-Ala-Asp-CH2F; configuration not given here),rescue of cell death in Aldh3a2 deficient cells,"[6]; ZVAD 10 uM, Lin- cKit+ cells, FIG. 6F",did not rescue the cell death
